The source made the active and inactive calls. The calls are words filed in the database; no cut-off is given here.
Experiments:
Acetylcholinesterase [1] = molecular target: T1, Acetylcholinesterase (Homo sapiens, UniProt P22303); experiment: Inhibition of human erythrocyte acetylcholinesterase using acetylthiocholine iodide as substrate pre-incubated for 10 mins followed by substrate addition and measured for 6 mins by Ellman's method
Cholinesterase = Cholinesterase (Homo sapiens, UniProt P06276); experiment: Inhibition of human serum butyrylcholinesterase using BTCI as substrate pre-incubated for 10 mins followed by substrate addition and measured for 6 mins by Ellman's method
Sequence of Cholinesterase (P06276 whole entry, the tested form may be a part): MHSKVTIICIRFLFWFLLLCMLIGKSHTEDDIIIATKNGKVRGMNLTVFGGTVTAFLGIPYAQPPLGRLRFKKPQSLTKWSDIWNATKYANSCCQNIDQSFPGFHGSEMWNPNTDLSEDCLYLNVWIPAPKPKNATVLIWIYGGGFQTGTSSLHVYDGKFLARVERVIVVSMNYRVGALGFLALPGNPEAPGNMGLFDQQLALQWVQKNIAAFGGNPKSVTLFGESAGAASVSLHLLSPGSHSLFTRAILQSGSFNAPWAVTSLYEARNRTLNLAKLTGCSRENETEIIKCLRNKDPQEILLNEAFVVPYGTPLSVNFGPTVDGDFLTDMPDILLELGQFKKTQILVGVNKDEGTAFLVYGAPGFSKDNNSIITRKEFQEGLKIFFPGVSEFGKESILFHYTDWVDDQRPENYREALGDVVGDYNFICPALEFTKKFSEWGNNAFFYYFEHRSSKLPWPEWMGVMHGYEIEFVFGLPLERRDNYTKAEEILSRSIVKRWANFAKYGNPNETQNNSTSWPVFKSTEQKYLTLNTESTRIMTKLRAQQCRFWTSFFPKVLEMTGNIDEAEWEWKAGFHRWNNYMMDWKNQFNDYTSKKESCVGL

Beta-secretase 1 = Beta-secretase 1 (Homo sapiens, UniProt P56817); experiment: Inhibition of human BACE1 using as 7-Methoxycoumarin-4-acetyl-[Asn670, Leu671]-Amyloid beta/A4 precursor protein 770 fragment 667-676-(2,4-dinitrophenyl) Lys-Arg-Arg amide trifluoroacetate salt as substrate incubated for 2 hrs by FRET based florescence assay
Sequence of Beta-secretase 1 (P56817 whole entry, the tested form may be a part): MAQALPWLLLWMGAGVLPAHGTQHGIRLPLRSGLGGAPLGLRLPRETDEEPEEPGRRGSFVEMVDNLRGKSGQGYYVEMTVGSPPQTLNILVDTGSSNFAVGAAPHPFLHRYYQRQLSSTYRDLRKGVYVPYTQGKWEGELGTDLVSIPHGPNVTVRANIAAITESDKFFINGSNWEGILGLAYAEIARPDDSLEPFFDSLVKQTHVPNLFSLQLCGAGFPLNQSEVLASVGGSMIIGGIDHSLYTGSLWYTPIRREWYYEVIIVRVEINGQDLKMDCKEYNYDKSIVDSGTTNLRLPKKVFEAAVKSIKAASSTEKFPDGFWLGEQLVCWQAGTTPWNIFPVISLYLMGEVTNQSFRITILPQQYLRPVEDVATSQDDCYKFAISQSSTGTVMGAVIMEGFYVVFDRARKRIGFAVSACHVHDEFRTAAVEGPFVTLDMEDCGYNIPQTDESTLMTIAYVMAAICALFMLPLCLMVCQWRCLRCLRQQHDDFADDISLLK

Rattus norvegicus [2] = experiment: Cognitive enhancing effect in Wistar rat model of amyloid beta (1 to 42) oligomer-induced memory impairment model assessed as escape latency time at 5 mg/kg, po for 9 days by Morris water maze test (reference value: 49.3 to 74 secs); type: functional
Rattus norvegicus [3] = experiment: Antioxidant activity Wistar rat model of scopolamine-induced amnesia assessed as reduction in MDA levels in brain homogenates at 10 mg/kg, po by TBARS assay; type: functional, organism-based
[4] = Permeability of the compound at 25 ug/ml after 18 hrs by PAMPA-BBB assay
[5] = Cytotoxicity against human SH-SY5Y cells assessed as cell viability at 10 to 80 uM after 48 hrs by MTT assay relative to control; type: cell-based; conditions: read-out: Activity
[6] = Acute toxicity in Wistar rat assessed as induction of abnormal reactions at 100 to 500 mg/kg, po measured up to 14 days; type: organism-based; conditions: in vivo, 336 h
Rattus norvegicus [7] = experiment: Reversal of scopolamine-induced spatial memory impairment in Wistar rat model of amnesia assessed as decrease in transfer latency at 2.5 to 10 mg/kg, po administered once daily for 1 week followed by scopolamine challenge 30 mins prior to test by elevated plus maze test; type: functional, organism-based
Rattus norvegicus [8] = experiment: Reversal of scopolamine-induced spatial memory impairment in Wistar rat model of amnesia assessed as decrease in time spent on open arms at 2.5 to 10 mg/kg, po administered once daily for 1 week followed by scopolamine challenge 30 mins prior to test by elevated plus maze test; type: functional, organism-based
Rattus norvegicus [9] = experiment: In-vivo inhibition of scopolamine-induced acetylcholinesterase activity in Wistar rat brain homogenates using acetylthiocholine iodide as substrate at 10 mg/kg, po and measured for 6 mins by Ellman's method; type: functional, organism-based
Rattus norvegicus [10] = experiment: Antioxidant activity Wistar rat model of scopolamine-induced amnesia assessed as increase in SOD levels in brain homogenates at 10 mg/kg, po by NBT dye based assay; type: functional, organism-based
Rattus norvegicus [11] = experiment: Effect on total arm entries in scopolamine-induced spatial memory impairment in Wistar rat model of amnesia at 10 mg/kg, po administered once daily for 1 week followed by scopolamine challenge 30 mins prior to test by Y-maze test relative to control; type: functional, organism-based
[12] = Acute toxicity in Wistar rat at 100 to 500 mg/kg, po measured up to 14 days; type: organism-based; conditions: in vivo, 336 h
Acetylcholinesterase [13] = molecular target: T1, Acetylcholinesterase; experiment: Non-competitive inhibition of human erythrocyte AChE using acetylthiocholine iodide as substrate preincubated for 10 mins followed by substrate addition and measured for 6 mins by Lineweaver-Burk plot analysis
Acetylcholinesterase [14] = molecular target: T1, Acetylcholinesterase; experiment: Non-competitive inhibition of human erythrocyte AChE using acetylthiocholine iodide as substrate preincubated for 10 mins followed by substrate addition and measured for 6 mins by Dixon plot analysis
[15] = molecular target: Amyloid-beta precursor protein (Homo sapiens) (UniProt P05067); experiment: Inhibition of amyloid beta 1 to 42 (unknown origin) aggregation assessed as oligomer height at 10 uM incubated for 7 days by AFM analysis
Sequence of Amyloid-beta precursor protein (Homo sapiens) (P05067 whole entry): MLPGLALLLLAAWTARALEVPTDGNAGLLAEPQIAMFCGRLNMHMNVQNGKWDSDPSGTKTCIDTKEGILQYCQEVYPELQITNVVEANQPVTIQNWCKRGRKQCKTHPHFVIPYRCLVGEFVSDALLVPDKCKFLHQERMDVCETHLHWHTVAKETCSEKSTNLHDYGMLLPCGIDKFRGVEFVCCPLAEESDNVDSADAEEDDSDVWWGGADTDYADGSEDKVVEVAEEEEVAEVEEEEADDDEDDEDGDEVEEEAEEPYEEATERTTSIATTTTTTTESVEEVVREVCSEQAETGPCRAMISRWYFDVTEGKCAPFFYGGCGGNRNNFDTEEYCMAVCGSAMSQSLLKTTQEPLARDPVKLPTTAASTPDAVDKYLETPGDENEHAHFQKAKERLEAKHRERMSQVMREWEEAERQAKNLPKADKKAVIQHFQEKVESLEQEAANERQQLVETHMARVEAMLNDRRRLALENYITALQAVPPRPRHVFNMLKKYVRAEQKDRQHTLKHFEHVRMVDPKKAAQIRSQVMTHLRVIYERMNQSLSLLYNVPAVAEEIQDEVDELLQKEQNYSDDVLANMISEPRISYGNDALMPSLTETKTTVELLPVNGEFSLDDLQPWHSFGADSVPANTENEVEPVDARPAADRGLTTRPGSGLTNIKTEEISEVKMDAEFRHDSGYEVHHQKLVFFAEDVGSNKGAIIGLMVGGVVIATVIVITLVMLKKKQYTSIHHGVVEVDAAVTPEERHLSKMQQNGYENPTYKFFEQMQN

[16] = molecular target: Amyloid-beta precursor protein (Homo sapiens) (UniProt P05067); experiment: Inhibition of amyloid beta 1 to 42 (unknown origin) aggregation assessed as roughness index at 10 uM incubated for 7 days by AFM analysis
Rattus norvegicus [17] = experiment: Reversal of scopolamine-induced spatial memory impairment in Wistar rat model of amnesia assessed as increase in spontaneous alteration at 10 mg/kg, po administered once daily for 1 week followed by scopolamine challenge 30 mins prior to test by Y-maze test relative to control; type: functional, organism-based
Rattus norvegicus [18] = experiment: Cognitive enhancing effect in Wistar rat model of amyloid beta (1 to 42) oligomer-induced memory impairment model assessed as escape latency time at 10 mg/kg, po for 9 days by Morris water maze test (reference value: 49.3 to 74 secs); type: functional, organism-based
Rattus norvegicus [19] = experiment: Cognitive enhancing effect in Wistar rat model of amyloid beta (1 to 42) oligomer-induced memory impairment model assessed as increase in number of platform crossings at 10 mg/kg, po for 9 days by Morris water maze test; type: functional, organism-based
[20] = Cmax in Wistar rat at 10 mg/kg, po measured up to 0 to 72 hrs; type: ADME, organism-based; parameters: dose 10 mg/kg, route oral; conditions: in vivo
[21] = Tmax in Wistar rat at 10 mg/kg, po measured up to 0 to 72 hrs; type: ADME, organism-based; conditions: in vivo
[22] = AUC (0 to 24 hrs) in Wistar rat at 10 mg/kg, po; type: ADME, organism-based; parameters: dose 10 mg/kg, time < 24 hr, route oral; conditions: in vivo
[23] = MRT in Wistar rat at 10 mg/kg, po measured up to 0 to 72 hrs; type: ADME, organism-based; conditions: in vivo
[24] = Elimination half life in Wistar rat at 10 mg/kg, po measured up to 0 to 72 hrs; type: ADME, organism-based; conditions: in vivo, read-out: beta t1/2 (converted)

T1 sequence (P22303 whole entry): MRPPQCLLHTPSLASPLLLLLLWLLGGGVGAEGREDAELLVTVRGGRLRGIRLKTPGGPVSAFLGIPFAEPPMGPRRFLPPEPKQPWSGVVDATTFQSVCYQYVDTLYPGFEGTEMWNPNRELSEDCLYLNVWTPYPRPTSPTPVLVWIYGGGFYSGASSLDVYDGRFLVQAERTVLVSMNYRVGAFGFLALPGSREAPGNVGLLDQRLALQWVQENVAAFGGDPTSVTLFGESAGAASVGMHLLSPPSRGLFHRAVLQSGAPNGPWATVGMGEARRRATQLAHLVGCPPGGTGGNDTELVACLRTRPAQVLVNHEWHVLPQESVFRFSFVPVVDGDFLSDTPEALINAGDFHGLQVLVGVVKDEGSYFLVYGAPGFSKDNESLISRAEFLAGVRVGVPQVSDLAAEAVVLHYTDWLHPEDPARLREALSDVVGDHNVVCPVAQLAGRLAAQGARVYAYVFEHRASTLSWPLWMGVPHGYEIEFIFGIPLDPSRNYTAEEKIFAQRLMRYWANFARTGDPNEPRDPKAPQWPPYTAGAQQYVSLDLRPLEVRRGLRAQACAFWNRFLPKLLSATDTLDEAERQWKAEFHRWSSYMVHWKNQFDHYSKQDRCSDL

SMILES: Oc1ccc(CNC2CCN(Cc3ccccc3)CC2)c(O)c1
- IC50 (Acetylcholinesterase [1]): 2.3 µM
- IC50 (Cholinesterase): 18 µM
- IC50 (Beta-secretase 1): 5.9 µM

SMILES: COc1cc2c(cc1OC)C(=O)C(CC1CCN(Cc3ccccc3)CC1)C2 (stereo unspecified) [DONEPEZIL]
- Time (Rattus norvegicus [2]): 22.5 to 72.5 s

SMILES: O=[N+]([O-])c1ccc(CNC2CCN(Cc3ccccc3)CC2)cc1
- Activity (Rattus norvegicus [3]): Active
- IC50 (Acetylcholinesterase [1]): 0.72 µM
- IC50 (Cholinesterase): 7.8 µM
- IC50 (Beta-secretase 1): 0.43 µM
- Papp at 18 h, 25 ug/ml [4]: 4.41 ×10⁻⁶ cm/s
- viability at 48 h, up to 80 µM [5]: 76.3 to 96.3%
- Activity [6]: Non-Toxic
- Activity (Rattus norvegicus [7]): Active
- Activity (Rattus norvegicus [8]): Active
- inhibition (Rattus norvegicus [9]): Active
- Activity (Rattus norvegicus [10]): Active
- Activity (Rattus norvegicus [11]): inactive
- Activity [12]: Non-Toxic

SMILES: c1ccc(CNC2CCN(Cc3ccccc3)CC2)cc1
- IC50 (Acetylcholinesterase [1]): 1.7 µM
- IC50 (Cholinesterase): 12 µM
- IC50 (Beta-secretase 1): 2.9 µM

SMILES: Cc1cccc(/C=N/C2CCN(Cc3ccccc3)CC2)c1
- IC50 (Acetylcholinesterase [1]): > 15 µM
- IC50 (Cholinesterase): > 30 µM
- IC50 (Beta-secretase 1): 3.3 µM

SMILES: Fc1ccc(/C=N/C2CCN(Cc3ccccc3)CC2)cc1
- IC50 (Acetylcholinesterase [1]): 2.9 µM
- IC50 (Cholinesterase): > 30 µM
- IC50 (Beta-secretase 1): 1.5 µM

SMILES: COc1cccc(/C=N/C2CCN(Cc3ccccc3)CC2)c1OC
- IC50 (Acetylcholinesterase [1]): > 15 µM
- IC50 (Cholinesterase): > 30 µM
- IC50 (Beta-secretase 1): 6.3 µM

SMILES: Fc1ccc(/C=N/C2CCN(Cc3ccccc3)CC2)c(F)c1
- IC50 (Acetylcholinesterase [1]): 1.3 µM
- IC50 (Cholinesterase): > 30 µM
- IC50 (Beta-secretase 1): 3.5 µM

SMILES: COc1cc(/C=N/C2CCN(Cc3ccccc3)CC2)cc(OC)c1OC
- IC50 (Acetylcholinesterase [1]): > 15 µM
- IC50 (Cholinesterase): 11 µM
- IC50 (Beta-secretase 1): 14 µM

SMILES: FC(F)(F)c1ccc(CNC2CCN(Cc3ccccc3)CC2)cc1
- Activity (Rattus norvegicus [3]): Active
- IC50 (Acetylcholinesterase [1]): 0.11 µM
- IC50 (Cholinesterase): 3 µM
- inhibition (Acetylcholinesterase [13]): Active
- Ki (Acetylcholinesterase [14]): 0.1 µM
- IC50 (Beta-secretase 1): 0.22 µM
- Papp at 18 h, 25 ug/ml [4]: 6.09 ×10⁻⁶ cm/s
- Activity [15]: 44.5 to 104 nm
- Activity [16]: 1.7 to 4.4 nm
- viability at 48 h, up to 80 µM [5]: 84.6 to 99.2%
- Activity [6]: Non-Toxic
- Time (Rattus norvegicus [2]): 20.3 to 74.5 s
- Activity (Rattus norvegicus [7]): Active
- Activity (Rattus norvegicus [8]): Active
- Activity (Rattus norvegicus [17]): Active
- inhibition (Rattus norvegicus [9]): Active
- Activity (Rattus norvegicus [10]): Active
- Activity (Rattus norvegicus [18]): Active
- Activity (Rattus norvegicus [19]): Active
- Cmax [20]: 32.8 ng/mL
- Tmax [21]: 5.3 h
- AUC(0-t) at 24 h [22]: 633 ng·h/mL
- MRT [23]: 45.7 h
- half-life [24]: 29.2 h
- Activity (Rattus norvegicus [11]): inactive
- Activity [12]: Non-Toxic

SMILES: O=[N+]([O-])c1ccc(/C=N/C2CCN(Cc3ccccc3)CC2)cc1
- IC50 (Acetylcholinesterase [1]): 0.9 µM
- IC50 (Cholinesterase): 7.3 µM
- IC50 (Beta-secretase 1): 0.73 µM
- Papp at 18 h, 25 ug/ml [4]: 4.99 ×10⁻⁶ cm/s

SMILES: Oc1ccc(/C=N/C2CCN(Cc3ccccc3)CC2)cc1
- IC50 (Acetylcholinesterase [1]): 4.8 µM
- IC50 (Cholinesterase): > 30 µM
- IC50 (Beta-secretase 1): 12 µM

SMILES: FC(F)(F)c1ccc(/C=N/C2CCN(Cc3ccccc3)CC2)cc1
- IC50 (Acetylcholinesterase [1]): 0.44 µM
- IC50 (Cholinesterase): 3.9 µM
- IC50 (Beta-secretase 1): 0.28 µM
- Papp at 18 h, 25 ug/ml [4]: 6.24 ×10⁻⁶ cm/s

SMILES: Clc1ccc(/C=N/C2CCN(Cc3ccccc3)CC2)cc1
- IC50 (Acetylcholinesterase [1]): 1.5 µM
- IC50 (Cholinesterase): 4.6 µM
- IC50 (Beta-secretase 1): 1.7 µM

SMILES: Fc1ccc(CNC2CCN(Cc3ccccc3)CC2)cc1
- IC50 (Acetylcholinesterase [1]): 1.2 µM
- IC50 (Cholinesterase): 3.9 µM
- IC50 (Beta-secretase 1): 0.55 µM

SMILES: Clc1ccc(CNC2CCN(Cc3ccccc3)CC2)c(Cl)c1
- IC50 (Acetylcholinesterase [1]): 0.62 µM
- IC50 (Cholinesterase): 3.5 µM
- IC50 (Beta-secretase 1): 3 µM

SMILES: Clc1ccc(/C=N/C2CCN(Cc3ccccc3)CC2)c(Cl)c1
- IC50 (Acetylcholinesterase [1]): 1.3 µM
- IC50 (Cholinesterase): 5.8 µM
- IC50 (Beta-secretase 1): 3.9 µM

SMILES: COc1cccc(CNC2CCN(Cc3ccccc3)CC2)c1OC
- IC50 (Acetylcholinesterase [1]): 2.2 µM
- IC50 (Cholinesterase): 7.2 µM
- IC50 (Beta-secretase 1): 5.3 µM

SMILES: Clc1ccc(CNC2CCN(Cc3ccccc3)CC2)cc1
- IC50 (Acetylcholinesterase [1]): 0.85 µM
- IC50 (Cholinesterase): 4 µM
- IC50 (Beta-secretase 1): 0.66 µM

SMILES: Oc1ccc(CNC2CCN(Cc3ccccc3)CC2)cc1
- IC50 (Acetylcholinesterase [1]): 4 µM
- IC50 (Cholinesterase): > 30 µM
- IC50 (Beta-secretase 1): 9.9 µM

SMILES: COc1cc(CNC2CCN(Cc3ccccc3)CC2)cc(OC)c1OC
- IC50 (Acetylcholinesterase [1]): 2.2 µM
- IC50 (Cholinesterase): 11 µM
- IC50 (Beta-secretase 1): 13 µM

SMILES: FC(F)(F)Oc1ccc(CNC2CCN(Cc3ccccc3)CC2)cc1
- IC50 (Acetylcholinesterase [1]): 0.59 µM
- IC50 (Cholinesterase): 3.5 µM
- IC50 (Beta-secretase 1): 1.4 µM

SMILES: Cc1ccc(CNC2CCN(Cc3ccccc3)CC2)cc1
- IC50 (Acetylcholinesterase [1]): 3.7 µM
- IC50 (Cholinesterase): > 30 µM
- IC50 (Beta-secretase 1): 17 µM

SMILES: C(=N\C1CCN(Cc2ccccc2)CC1)/c1ccccc1
- IC50 (Acetylcholinesterase [1]): 2.1 µM
- IC50 (Cholinesterase): > 30 µM
- IC50 (Beta-secretase 1): 3.4 µM

SMILES: Cc1cccc(CNC2CCN(Cc3ccccc3)CC2)c1
- IC50 (Acetylcholinesterase [1]): 4.1 µM
- IC50 (Cholinesterase): > 30 µM
- IC50 (Beta-secretase 1): 2.6 µM

SMILES: Cc1ccc(/C=N/C2CCN(Cc3ccccc3)CC2)cc1
- IC50 (Acetylcholinesterase [1]): 4.4 µM
- IC50 (Cholinesterase): > 30 µM
- IC50 (Beta-secretase 1): 19 µM

SMILES: Oc1ccccc1CNC1CCN(Cc2ccccc2)CC1
- IC50 (Acetylcholinesterase [1]): 2.4 µM
- IC50 (Cholinesterase): 14 µM
- IC50 (Beta-secretase 1): 2 µM

SMILES: FC(F)(F)Oc1ccc(/C=N/C2CCN(Cc3ccccc3)CC2)cc1
- IC50 (Acetylcholinesterase [1]): 1 µM
- IC50 (Cholinesterase): 5.5 µM
- IC50 (Beta-secretase 1): 1.8 µM

SMILES: Oc1ccccc1/C=N/C1CCN(Cc2ccccc2)CC1
- IC50 (Acetylcholinesterase [1]): 2.8 µM
- IC50 (Cholinesterase): 16 µM
- IC50 (Beta-secretase 1): 2.7 µM

SMILES: Fc1ccc(CNC2CCN(Cc3ccccc3)CC2)c(F)c1
- IC50 (Acetylcholinesterase [1]): 0.71 µM
- IC50 (Cholinesterase): 3.1 µM
- IC50 (Beta-secretase 1): 2.9 µM

SMILES: Oc1ccc(/C=N/C2CCN(Cc3ccccc3)CC2)c(O)c1
- IC50 (Acetylcholinesterase [1]): 2.6 µM
- IC50 (Cholinesterase): 19 µM
- IC50 (Beta-secretase 1): 10 µM

— ChEMBL document CHEMBL4433202, “Design and development of multitarget-directed N-Benzylpiperidine analogs as potential candidates for the treatment of Alzheimer's disease” (Eur J Med Chem, 2019)
